Test results taken from ChEMBL document CHEMBL1156854, “Design and synthesis of piperazine-indole p38 alpha MAP kinase inhibitors with improved pharmacokinetic profiles” (Bioorg Med Chem Lett, 2010).

Key:
Liver microsomes [1] = experiment: Metabolic stability in rat liver microsomes assessed as parent compound level; format: ADME, Microsome
[2] = Metabolic stability in dog liver microsomes assessed as parent compound level; format: ADME, Canis lupus familiaris, Microsome
[3] = Metabolic stability in monkey liver microsomes assessed as parent compound level; format: ADME, Macaca mulatta, Microsome; conditions: rhesus monkey
Liver microsomes [4] = experiment: Metabolic stability in human liver microsomes assessed as parent compound level; format: ADME, Microsome
Liver microsomes [5] = experiment: Metabolic stability in rat liver microsomes assessed as demethylated metabolite level; format: ADME, Microsome
[6] = Metabolic stability in monkey liver microsomes assessed as demethylated metabolite level; format: ADME, Macaca mulatta, Microsome; conditions: rhesus monkey
[7] = Clearance in po dosed rat; format: ADME, organism-based; conditions: in vivo
[8] = Oral bioavailability in rat; format: ADME, organism-based; conditions: in vivo
[9] = Oral bioavailability in dog; format: ADME, organism-based, Canis lupus familiaris; conditions: in vivo
[10] = Clearance in po dosed dog; format: ADME, organism-based, Canis lupus familiaris; conditions: in vivo
Rattus norvegicus = experiment: Volume of distribution in po dosed rat; format: ADME, organism-based; conditions: in vivo
Canis familiaris = experiment: Volume of distribution in po dosed dog; format: ADME, organism-based, Canis lupus familiaris; conditions: in vivo
[11] = Cmax in rat; format: ADME, organism-based; conditions: in vivo
[12] = Cmax in dog; format: ADME, organism-based, Canis lupus familiaris; conditions: in vivo
[13] = Cmax in monkey; format: ADME, organism-based, Macaca mulatta; conditions: rhesus monkey, in vivo
[14] = Tmax in rat; format: ADME, organism-based; conditions: in vivo
[15] = Tmax in dog; format: ADME, organism-based, Canis lupus familiaris; conditions: in vivo
[16] = Tmax in monkey; format: ADME, organism-based, Macaca mulatta; conditions: rhesus monkey, in vivo
[17] = AUC in iv dosed rat; format: ADME, organism-based; conditions: plasma
[18] = AUC in iv dosed dog; format: ADME, organism-based, Canis lupus familiaris; conditions: plasma
[19] = AUC in po dosed rat; format: ADME, organism-based; conditions: plasma
[20] = AUC in po dosed dog; format: ADME, organism-based, Canis lupus familiaris; conditions: plasma
[21] = AUC in po dosed monkey; format: ADME, organism-based, Macaca mulatta; conditions: rhesus monkey, plasma
[22] = Oral bioavailability in monkey; format: ADME, organism-based, Macaca mulatta; conditions: rhesus monkey, in vivo

`C[C@@H]1CN(C(c2ccccc2)c2ccccc2)[C@@H](C)CN1C(=O)c1cc2c(C(=O)C(=O)N(C)C)cn(C)c2cc1Cl` gave a Stability (Liver microsomes [1]) of 83.9%, a Stability [2] of 91.7% and a Stability [3] of 71.4%. It also gave a Stability (Liver microsomes [4]) of 90.8%, a Stability (Liver microsomes [5]) of 9.4% and a Stability [6] of 19.5%. For the same compound, the CL/F [7] was 20 mL/min/kg, the bioavailability [8] was 31% and the bioavailability [9] was 33%. For the same compound, the CL/F [10] was 3.33 mL/min/kg, the Vd (Rattus norvegicus) was 2.7 L/kg and the Vd (Canis familiaris) was 6.5 L/kg. It also gave a Cmax [11] of 367 ng/mL, a Cmax [12] of 899 ng/mL and a Cmax [13] of 360 ng/mL. The Tmax [14] was 1.2 h, the Tmax [15] was 1.3 h and the Tmax [16] was 2 h. For the same compound, the AUC [17] was 810 ng·h/mL, the AUC [18] was 3430 ng·h/mL and the AUC [19] was 1270 ng·h/mL. The AUC [20] was 5610 ng·h/mL and the AUC [21] was 1830 ng·h/mL.
For `C[C@@H]1CN(Cc2ccc(F)cc2)[C@@H](C)CN1C(=O)c1cc2c(C(=O)C(=O)N(C)C)cn(C)c2cc1Cl` [TALMAPIMOD], the Stability (Liver microsomes [1]) was 65.8%, the Stability [2] was 94.5% and the Stability [3] was 51.2%. For the same compound, the Stability (Liver microsomes [4]) was 65.1%, the Stability (Liver microsomes [5]) was 3.2% and the Stability [6] was 11.9%. It also gave a bioavailability [9] of 69% and a bioavailability [22] of 12%.
